# Assay results published in ChEMBL document CHEMBL4804284.
# How the values were obtained:
# [1] = molecular target: Mitogen-activated protein kinase kinase kinase kinase 4 (Homo sapiens) (UniProt O95819); assay: Inhibition of DNA-tagged human MAP4K4 assessed as percent of control at 50000 nM by qPCR analysis relative to control; design: scale not given: the % may be the effect or the level left
# [2] = molecular target: Epithelial discoidin domain-containing receptor 1 (Homo sapiens) (UniProt Q08345); assay: Inhibition of DNA-tagged human DDR1 assessed as percent of control at 50000 nM by qPCR analysis relative to control; design: scale not given: the % may be the effect or the level left
# Chain of Epithelial discoidin domain-containing receptor 1 (Homo sapiens) (Q08345 whole entry, the tested form may be a part): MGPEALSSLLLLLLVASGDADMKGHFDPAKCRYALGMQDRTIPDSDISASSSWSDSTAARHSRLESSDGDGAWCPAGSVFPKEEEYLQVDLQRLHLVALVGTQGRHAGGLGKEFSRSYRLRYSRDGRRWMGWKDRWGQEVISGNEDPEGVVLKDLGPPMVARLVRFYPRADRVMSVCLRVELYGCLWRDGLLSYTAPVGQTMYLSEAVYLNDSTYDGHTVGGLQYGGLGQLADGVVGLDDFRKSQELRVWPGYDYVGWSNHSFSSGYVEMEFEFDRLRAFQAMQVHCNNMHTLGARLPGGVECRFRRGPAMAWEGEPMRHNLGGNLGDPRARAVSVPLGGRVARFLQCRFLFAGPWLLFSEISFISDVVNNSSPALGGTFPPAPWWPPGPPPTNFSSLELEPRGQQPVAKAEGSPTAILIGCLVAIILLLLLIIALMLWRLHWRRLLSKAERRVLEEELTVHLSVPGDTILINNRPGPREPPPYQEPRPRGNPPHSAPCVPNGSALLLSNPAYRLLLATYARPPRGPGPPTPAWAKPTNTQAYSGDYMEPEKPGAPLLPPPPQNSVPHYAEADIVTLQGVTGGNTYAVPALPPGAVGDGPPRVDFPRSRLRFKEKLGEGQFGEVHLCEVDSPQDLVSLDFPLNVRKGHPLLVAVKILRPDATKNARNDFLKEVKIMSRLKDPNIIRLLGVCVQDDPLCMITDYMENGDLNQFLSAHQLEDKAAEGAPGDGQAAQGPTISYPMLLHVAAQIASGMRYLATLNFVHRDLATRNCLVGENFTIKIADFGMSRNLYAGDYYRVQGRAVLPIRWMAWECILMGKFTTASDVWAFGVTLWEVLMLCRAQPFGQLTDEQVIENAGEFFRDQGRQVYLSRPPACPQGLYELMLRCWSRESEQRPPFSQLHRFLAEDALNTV
# Chain of Mitogen-activated protein kinase kinase kinase kinase 4 (Homo sapiens) (O95819 2-1239 limits assumed): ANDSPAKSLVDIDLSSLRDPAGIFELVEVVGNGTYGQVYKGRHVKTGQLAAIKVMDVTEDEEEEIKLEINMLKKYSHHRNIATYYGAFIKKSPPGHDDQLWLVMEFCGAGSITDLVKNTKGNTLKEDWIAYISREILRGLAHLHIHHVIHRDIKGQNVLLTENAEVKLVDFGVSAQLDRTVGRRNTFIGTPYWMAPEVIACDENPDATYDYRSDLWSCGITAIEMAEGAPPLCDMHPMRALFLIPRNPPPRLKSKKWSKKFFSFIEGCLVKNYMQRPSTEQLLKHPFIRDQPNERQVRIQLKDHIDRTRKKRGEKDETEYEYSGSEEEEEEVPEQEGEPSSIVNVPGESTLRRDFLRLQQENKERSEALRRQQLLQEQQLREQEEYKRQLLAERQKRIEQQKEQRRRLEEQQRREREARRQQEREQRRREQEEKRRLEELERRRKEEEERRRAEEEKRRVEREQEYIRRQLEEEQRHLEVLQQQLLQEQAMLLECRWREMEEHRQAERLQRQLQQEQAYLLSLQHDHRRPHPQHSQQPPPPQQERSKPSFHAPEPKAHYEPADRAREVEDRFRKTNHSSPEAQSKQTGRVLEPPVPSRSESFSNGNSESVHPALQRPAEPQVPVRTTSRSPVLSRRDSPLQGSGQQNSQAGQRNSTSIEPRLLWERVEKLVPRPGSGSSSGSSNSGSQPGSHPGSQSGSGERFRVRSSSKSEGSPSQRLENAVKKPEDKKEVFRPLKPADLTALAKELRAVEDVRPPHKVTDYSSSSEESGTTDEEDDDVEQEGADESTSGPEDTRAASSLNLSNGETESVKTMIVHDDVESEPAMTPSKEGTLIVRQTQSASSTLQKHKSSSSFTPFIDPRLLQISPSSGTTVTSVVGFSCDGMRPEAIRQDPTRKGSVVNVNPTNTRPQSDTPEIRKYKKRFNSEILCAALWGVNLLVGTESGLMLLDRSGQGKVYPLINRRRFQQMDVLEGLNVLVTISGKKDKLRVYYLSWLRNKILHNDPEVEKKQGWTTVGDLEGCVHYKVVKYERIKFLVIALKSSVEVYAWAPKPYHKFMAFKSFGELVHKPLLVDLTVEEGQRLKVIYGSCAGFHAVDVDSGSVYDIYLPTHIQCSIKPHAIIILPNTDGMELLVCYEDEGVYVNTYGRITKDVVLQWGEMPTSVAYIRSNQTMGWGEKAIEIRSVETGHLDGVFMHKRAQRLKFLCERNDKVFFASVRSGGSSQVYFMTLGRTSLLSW
smiles,measurement,setting,value
CN1C(=O)/C(=C2/C(=O)Nc3ccccc32)c2ccccc21,Activity,[1],100%
same,Activity,[2],84%
